In patent US20100113549A1, “PYRROLIDINE COMPOUNDS” (ISIS INNOVATION LTD., priority 2004, published 2010):
Like-named read-outs stand apart in the source and are kept apart here.

Legend:
[1] = tested on: bovine diarrhoea virus (BVDV); assay: BVDV antiviral assay in MDBK cells, plaque assay of secreted virus; format: cell-based; conditions: Bovine viral diarrhea virus isolates and strains; MOI=0.5, MDBK cells; read-out: IC50 against BVDV
Protocol: Madin-Darby bovine kidney cells (MDBK) were grown in DMEM/F12 (purchased from Gibco BRL) supplemented with 10% heat-inactivated horse serum (Gibco BRL). The cytopathic NADL strain of bovine viral diarrhoea virus (BVDV) (kindly provided by Dr. Ruben Donis, University of Nebraska) stock was prepared as previously described.^viii For antiviral activity testing MDBK cells were plated into 24 well plates 24 hours before virus infection. Cells were infected with BVDV at moi=0.5 for 1 hour in 100 μL media with occasional rocking of the plate. The inocula were washed twice with media and regular media were added with 100 μM of the test compound. After 24 hours, the supernatant media were saved. Secreted viruses in the media were titred on new MDBK cells by standard plaque assay. Toxicity of the compounds was determined by examining the tissue culture cells after the 24 hour treatment.

[2] = biological target: T1, glucosylceramide synthase (GCS) (Homo sapiens, UniProt Q16739); assay: Glucosylceramide synthase assay using HL-60 cell microsomes; format: biochemical; conditions: read-out: IC50 as GCS inhibitors
T1 construct: assay was conducted using HL-60 cell microsomes as described in the literature; endogenous in cells; host or cells: HL-60 cell microsomes
T1 sequence (Q16739 1-394): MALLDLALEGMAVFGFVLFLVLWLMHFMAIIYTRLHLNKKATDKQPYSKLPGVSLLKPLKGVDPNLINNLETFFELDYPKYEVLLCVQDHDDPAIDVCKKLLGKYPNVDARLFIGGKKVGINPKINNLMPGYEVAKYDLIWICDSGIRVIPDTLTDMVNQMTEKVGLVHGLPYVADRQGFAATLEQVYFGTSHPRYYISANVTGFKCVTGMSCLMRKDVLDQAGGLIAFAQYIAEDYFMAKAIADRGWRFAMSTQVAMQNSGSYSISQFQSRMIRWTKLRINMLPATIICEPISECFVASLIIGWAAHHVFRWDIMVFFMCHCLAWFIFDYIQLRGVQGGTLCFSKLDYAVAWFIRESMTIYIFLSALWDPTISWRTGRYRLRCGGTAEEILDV
Protocol: Glucosylceramide synthase [UDP-glucose N-acyl-sphingosine glucosyltransferase (EC 2.4.1.80)] assay was conducted using HL-60 cell microsomes as described in the literature.^iv
All inhibitors were screened at a concentration of 100 μM against glycosidases and 50 μM against glucosylceramide synthase; all assays were recorded in duplicate.

[3] = tested on: bovine diarrhoea virus (BVDV); conditions: MOI=0.1, literature (ref 16); read-out: IC50 against BVDV; cited from earlier work

CC(C)NC(=O)C1[C@H](O)[C@@H](O)CN1C(=O)c1ccoc1 (stereo partly shown) [9viiiF]
IC50 [1]: 30 µM

CC(C)(C)CC(C)(C)NC(=O)C1[C@H](O)[C@@H](O)CN1C(=O)c1ccccc1 (stereo partly shown) [9iiA]
IC50 [1]: 25 µM

CCCC(C)NC(=O)C1[C@H](O)[C@@H](O)CN1C(=O)c1cccc(N(C)C)c1 (stereo partly shown) [9viiG]
IC50 [1]: 30 µM

1-Butyl-2,3-trans-2-(1-pentylcarbamoyl)-3,4-cis-O-isopropylidene-pyrrolidine [compound 10]
IC50 [2]: 117 µM

CCCCCNC(=O)C1NCC2OC(C)(C)OC21 (stereo not drawn) [compound 11, 2,3-trans-2-(1-Pentylcarbamoyl)-3,4-cis-O-isopropylidene-pyrrolidine]
IC50 [2]: 140 µM

CCCCN1C[C@H](O)[C@@H](O)[C@H](O)[C@H]1CO [NB-DNJ]
IC50 [3]: 125 µM

CCCCCCCCCN1C[C@H](O)[C@@H](O)[C@H](O)[C@H]1CO [NN-DNJ]
IC50 [3]: 10 µM
